Key:
TXA2 [1] = experiment: Inhibition of thromboxane-induced isometric contraction of rabbit aortic strips (TXA2 generated from washed human platelets); format: cell-based, Kaninchen; conditions: Oryctolagus cuniculus, Platelet, thromboxane-induced vessel contraction, read-out: Hemmung (%) (x̄ ± SEM); for inhibition at 30 µg/mL: Konzentration 3 x 10^-5 g/ml
Method: Gefäßkonstriktorische Wirkung
Die gefäßkonstriktorische Wirkung von Thromboxan wird mit Hilfe der isometrischen Kontraktion von Kaninchenaortenstreifen gemessen (Furchtgott, R. F; Bhadrakom, S. J., Pharmacol. Exp. Ther. 108, 129 - 143, 1953). Männliche Kaninchen (Russen, Gewicht 1,8 - 2 kg) werden mit Pento- -barbital getötet. Die Brustaorta wird entnommen und spiral--förmig aufgeschnitten. Die Streifen (Breite 2 - 3 mm, Länge 3 cm) werden unter einer Spannung von 2 g in 10 ml - Organbädern, die Carbogen durchperlten Krebs-Henseleit-Puffer von 37°C enthalten, suspendiert. Zur Erhöhung der Spezifität der Methode enthält der Puffer folgende Inhibitoren (jeweils 100 µg/l): Propanololhydrochlorid, Phentolamin, Cyproheptadin, Atropin, Mebhydrolin und Indometacin. Die Kontraktionen werden nach Erreichen eines konstanten Basaltonus durch TXA2, generiert aus gewaschenen Human-Thrombozyten, ausgelöst.
Zur Präparation der Thrombozytensuspension wird Humanblut in 1 %iger EDTA-Lösung aufgenommen und bei 150 G 20 Minuten lang zentrifugiert. Das plättchenreiche Plasma wird abgehebert und bei 750 G für 20 Minuten zentrifugiert. Das plättchenarme Plasma wird abdekantiert und die verbleibenden Plättchen in Puffer (0,15 M NaCl, 0,15 M Tris/ HC1 pH 7.4, 77 mM EDTA; 90 : 8 : 2) aufgenommen.
Die Thromboxan-Generation erfolgt durch Stimulation der Plättchen mit Thrombin bei 37°C unter Rühren. Nach 30 sec wird die Plättchensuspension zu dem mit Prüfsubstanz bzw. Lösungsmittel vorbehandelten Aortenstreifen gegeben und damit die Kontraktionen ausgelöst. Die prozentuale Hemmung errechnet sich aus den entsprechenden Ausschlägen.
An den in der folgenden Tabelle 1 genannten Verbindungen wurde die spezifische Hemmung der durch Thromboxan induzierten Gefäßkontraktionen bestimmt.

Thrombozyten = experiment: Inhibition of collagen-induced platelet aggregation in platelet-rich plasma (turbidimetric, Born); format: cell-based; conditions: Homo sapiens, Konzentration 3 x 10^-5 g/ml, PRP, 37°C, read-out: Hemmung (%) (x̄ ± SEM)
Method: Thrombocytenaggregationshemmung
Für die Bestimmung der thrombocytenaggregationshemmenden Wirkung wird Blut von gesunden Spendern, die mindestens 14 Tage lang kein Medikament eingenommen hatten, verwendet. Das Blut wird in 3.8 %iger Natriumcitratlösung aufgenommen. Plättchenreiches Plasma (PRP) wird durch 20 min. lange Zentrifugation bei 150 G bei Raumtemperatur gewonnen (Jürgens/Beller: Klinische Methoden der Blutgerinnungsanalyse; Thieme-Verlag, Stuttgart 1959). Die Plättchenaggregation wird nach der turbidometrischen Methode (Born, G. V. R.: J. Physiol. 162 67, 1962) im Aggregometer bei 37°C bestimmt. Hierzu wird PRP mit Prüfsubstanz bei 37°C inkubiert und anschließend die Aggregation durch Zugabe einer Kollagensuspension ausgelöst. Die prozentuale Hemmung errechnet sich aus den entsprechenden Ausschlägen.
An den in der folgenden Tabelle 2 genannten Verbindungen wurde die Hemmung der Kollagen-induzierten Thrombozytenaggregation untersucht.

TXA2 [2] = conditions: literature: Tanaka, Harada, Katori, Prostaglandins 17, 235, 1979; cited from earlier work

SMILES	inhibition at 30 µg/mL (TXA2 [1])	inhibition at 30 µg/mL (Thrombozyten)	also measured
O=C(O)CCCSc1nc2ccccc2s1 [Beispiel 9]	84 ± 3%	52%	inhibition at 100 µg/mL (TXA2 [1]; Konzentration 1 x 10^-4 g/ml): 100%; inhibition at 10 µg/mL (TXA2 [1]; Konzentration 1 x 10^-5 g/ml): 58 ± 7%; inhibition at 1 µg/mL (TXA2 [1]; Konzentration 1 x 10^-6 g/ml): 16 ± 7%; inhibition at 3 µg/mL (TXA2 [1]; Konzentration 3 x 10^-6 g/ml): 34 ± 6%
O=C(O)CCCSc1nc2cc(F)c(F)cc2s1 [Beispiel 11a]	82 ± 1%	–	–
O=C(O)CCCSc1nc(Cl)c(Cl)s1 [Beispiel 21]	59 ± 6%	69%	–
O=C(O)CCCCSc1nc(Cl)c(Cl)s1 [Beispiel 23]	47 ± 10%	–	–
O=C(O)CCCCSc1nc2ccccc2s1 [Beispiel 25]	31 ± 18%	–	–
CCOC(=O)c1c(C)cc2c(CO)n[nH]c(=O)c2c1C [Phthalazinol]	–	–	Wirkung als spezifischer TXA2-Antagonist (TXA2 [2]): nicht als spezifischer TXA2-Antagonist

From EP0137426A2, “2-Mercaptothiazole derivatives, process for their preparation and utilization of 2-mercaptothiazole derivatives in pharmaceutical compounds” (BAYER AG, priority 1983, dated 1985)
